Experimental findings from the supplement of paper PMC10307832 are described below.

Each structure is given as a SMILES string.

One test deals with NCI-H2085. Description: relative viability (nuclei count vs DMSO), 5 days (fraction); higher = more cells survive. Particulars: first compound 0.8 µM. The method in brief: (§1)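 Relative viability equals treated-well nuclei counts divided by vehicle-well nuclei counts. Counts came from 4× images of lung cancer cell lines grown in 1536-well plates for 5 days after pin-tool dosing on the day after seeding. Dosing used one drug alone or a fixed anchor-drug dose plus five library-drug doses (not always all listed) in √10 steps, and values are medians of duplicate plates.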
The molecule `CCCCCCCCCCCC1=C(O)C(=O)C=C(O)C1=O` [Embelin] + CCNC(=O)c1noc(-c2cc(C(C)C)c(O)cc2O)c1-c1ccc(CN2CCOCC2)cc1 [Luminespib] (partner 0.01 µM) had a relative viability of 0.463.

`CCCCCCCCCCCC1=C(O)C(=O)C=C(O)C1=O` [Embelin] + Cc1nc(Nc2ncc(C(=O)Nc3c(C)cccc3Cl)s2)cc(N2CCN(CCO)CC2)n1 [Dasatinib] (partner 0.075 µM) showed a relative viability of 0.246.

The molecule `CCCCCCCCCCCC1=C(O)C(=O)C=C(O)C1=O` [Embelin] + CC(=O)c1c(C)c2cnc(Nc3ccc(N4CCNCC4)cn3)nc2n(C2CCCC2)c1=O [Palbociclib] (partner 0.5 µM) returned a relative viability of 0.464.

The molecule `CCCCCCCCCCCC1=C(O)C(=O)C=C(O)C1=O` [Embelin] + COc1cccc2cc(-c3nc([C@H]4CC[C@H](C(=O)O)CC4)n4ncnc(N)c34)[nH]c12 [OSI-027] (partner 0.5 µM) yielded a relative viability of 0.84.

Molecule `CCCCCCCCCCCC1=C(O)C(=O)C=C(O)C1=O` [Embelin] + Nc1nc2[nH]cc(CCc3ccc(C(=O)N[C@@H](CCC(=O)O)C(=O)O)cc3)c2c(=O)[nH]1 [Pemetrexed] (partner 0.2 µM) registered a relative viability of 1.01.

The test is the same for the next values; noted with them: first compound 2.53 µM.
For the molecule `CCCCCCCCCCCC1=C(O)C(=O)C=C(O)C1=O` [Embelin] + CCNC(=O)c1noc(-c2cc(C(C)C)c(O)cc2O)c1-c1ccc(CN2CCOCC2)cc1 [Luminespib] (partner 0.01 µM), the relative viability is 0.469.

For the molecule `CCCCCCCCCCCC1=C(O)C(=O)C=C(O)C1=O` [Embelin] + Cc1nc(Nc2ncc(C(=O)Nc3c(C)cccc3Cl)s2)cc(N2CCN(CCO)CC2)n1 [Dasatinib] (partner 0.075 µM), the relative viability worked out at 0.227.

`CCCCCCCCCCCC1=C(O)C(=O)C=C(O)C1=O` [Embelin] + CC(=O)c1c(C)c2cnc(Nc3ccc(N4CCNCC4)cn3)nc2n(C2CCCC2)c1=O [Palbociclib] (partner 0.5 µM) showed a relative viability of 0.502.

For the molecule `CCCCCCCCCCCC1=C(O)C(=O)C=C(O)C1=O` [Embelin] + COc1cccc2cc(-c3nc([C@H]4CC[C@H](C(=O)O)CC4)n4ncnc(N)c34)[nH]c12 [OSI-027] (partner 0.5 µM), the relative viability was 0.699.

In turn, `CCCCCCCCCCCC1=C(O)C(=O)C=C(O)C1=O` [Embelin] + Nc1nc2[nH]cc(CCc3ccc(C(=O)N[C@@H](CCC(=O)O)C(=O)O)cc3)c2c(=O)[nH]1 [Pemetrexed] (partner 0.2 µM) gave a relative viability of 0.87.

Still in this test, the particulars now being: first compound 8 µM.
The molecule `CCCCCCCCCCCC1=C(O)C(=O)C=C(O)C1=O` [Embelin] + CCNC(=O)c1noc(-c2cc(C(C)C)c(O)cc2O)c1-c1ccc(CN2CCOCC2)cc1 [Luminespib] (partner 0.01 µM) yielded a relative viability of 0.4.

Molecule `CCCCCCCCCCCC1=C(O)C(=O)C=C(O)C1=O` [Embelin] + Cc1nc(Nc2ncc(C(=O)Nc3c(C)cccc3Cl)s2)cc(N2CCN(CCO)CC2)n1 [Dasatinib] (partner 0.075 µM) came in with a relative viability of 0.209.

In the case of `CCCCCCCCCCCC1=C(O)C(=O)C=C(O)C1=O` [Embelin] + CC(=O)c1c(C)c2cnc(Nc3ccc(N4CCNCC4)cn3)nc2n(C2CCCC2)c1=O [Palbociclib] (partner 0.5 µM), the relative viability was 0.469.

The molecule `CCCCCCCCCCCC1=C(O)C(=O)C=C(O)C1=O` [Embelin] + COc1cccc2cc(-c3nc([C@H]4CC[C@H](C(=O)O)CC4)n4ncnc(N)c34)[nH]c12 [OSI-027] (partner 0.5 µM) registered a relative viability of 0.646.

In the case of `CCCCCCCCCCCC1=C(O)C(=O)C=C(O)C1=O` [Embelin] + Nc1nc2[nH]cc(CCc3ccc(C(=O)N[C@@H](CCC(=O)O)C(=O)O)cc3)c2c(=O)[nH]1 [Pemetrexed] (partner 0.2 µM), the relative viability is 0.871.

Another test deals with LXF-289. Described as above. Particulars: first compound 0.08 µM. Put shortly:
as §1
Regarding `CCCCCCCCCCCC1=C(O)C(=O)C=C(O)C1=O` [Embelin] + CCNC(=O)c1noc(-c2cc(C(C)C)c(O)cc2O)c1-c1ccc(CN2CCOCC2)cc1 [Luminespib] (partner 0.01 µM), the relative viability was found to be 0.548.

Turning to `CCCCCCCCCCCC1=C(O)C(=O)C=C(O)C1=O` [Embelin] + Cc1nc(Nc2ncc(C(=O)Nc3c(C)cccc3Cl)s2)cc(N2CCN(CCO)CC2)n1 [Dasatinib] (partner 0.075 µM), the relative viability worked out at 0.212.

`CCCCCCCCCCCC1=C(O)C(=O)C=C(O)C1=O` [Embelin] + CC(=O)c1c(C)c2cnc(Nc3ccc(N4CCNCC4)cn3)nc2n(C2CCCC2)c1=O [Palbociclib] (partner 0.5 µM) displayed a relative viability of 0.594.

With `CCCCCCCCCCCC1=C(O)C(=O)C=C(O)C1=O` [Embelin] + COc1cccc2cc(-c3nc([C@H]4CC[C@H](C(=O)O)CC4)n4ncnc(N)c34)[nH]c12 [OSI-027] (partner 0.5 µM), the relative viability was 0.796.

For `CCCCCCCCCCCC1=C(O)C(=O)C=C(O)C1=O` [Embelin] + Nc1nc2[nH]cc(CCc3ccc(C(=O)N[C@@H](CCC(=O)O)C(=O)O)cc3)c2c(=O)[nH]1 [Pemetrexed] (partner 0.2 µM), the relative viability was 0.863.

Still in this test, the particulars now being: first compound 0.8 µM.
Take `CCCCCCCCCCCC1=C(O)C(=O)C=C(O)C1=O` [Embelin] + CCNC(=O)c1noc(-c2cc(C(C)C)c(O)cc2O)c1-c1ccc(CN2CCOCC2)cc1 [Luminespib] (partner 0.01 µM): the relative viability was 0.619.

For the molecule `CCCCCCCCCCCC1=C(O)C(=O)C=C(O)C1=O` [Embelin] + Cc1nc(Nc2ncc(C(=O)Nc3c(C)cccc3Cl)s2)cc(N2CCN(CCO)CC2)n1 [Dasatinib] (partner 0.075 µM), the relative viability came to 0.282.

Consider `CCCCCCCCCCCC1=C(O)C(=O)C=C(O)C1=O` [Embelin] + CC(=O)c1c(C)c2cnc(Nc3ccc(N4CCNCC4)cn3)nc2n(C2CCCC2)c1=O [Palbociclib] (partner 0.5 µM), for which the relative viability came to 0.59.

In turn, `CCCCCCCCCCCC1=C(O)C(=O)C=C(O)C1=O` [Embelin] + COc1cccc2cc(-c3nc([C@H]4CC[C@H](C(=O)O)CC4)n4ncnc(N)c34)[nH]c12 [OSI-027] (partner 0.5 µM) had a relative viability of 0.952.

Regarding `CCCCCCCCCCCC1=C(O)C(=O)C=C(O)C1=O` [Embelin] + Nc1nc2[nH]cc(CCc3ccc(C(=O)N[C@@H](CCC(=O)O)C(=O)O)cc3)c2c(=O)[nH]1 [Pemetrexed] (partner 0.2 µM), the relative viability came to 0.915.

The test is the same for the next values; noted with them: first compound 2.53 µM.
`CCCCCCCCCCCC1=C(O)C(=O)C=C(O)C1=O` [Embelin] + CCNC(=O)c1noc(-c2cc(C(C)C)c(O)cc2O)c1-c1ccc(CN2CCOCC2)cc1 [Luminespib] (partner 0.01 µM) had a relative viability of 0.781.

`CCCCCCCCCCCC1=C(O)C(=O)C=C(O)C1=O` [Embelin] + Cc1nc(Nc2ncc(C(=O)Nc3c(C)cccc3Cl)s2)cc(N2CCN(CCO)CC2)n1 [Dasatinib] (partner 0.075 µM) came in with a relative viability of 0.163.

Molecule `CCCCCCCCCCCC1=C(O)C(=O)C=C(O)C1=O` [Embelin] + CC(=O)c1c(C)c2cnc(Nc3ccc(N4CCNCC4)cn3)nc2n(C2CCCC2)c1=O [Palbociclib] (partner 0.5 µM) displayed a relative viability of 0.649.

Turning to `CCCCCCCCCCCC1=C(O)C(=O)C=C(O)C1=O` [Embelin] + COc1cccc2cc(-c3nc([C@H]4CC[C@H](C(=O)O)CC4)n4ncnc(N)c34)[nH]c12 [OSI-027] (partner 0.5 µM), the relative viability came out at 0.801.

`CCCCCCCCCCCC1=C(O)C(=O)C=C(O)C1=O` [Embelin] + Nc1nc2[nH]cc(CCc3ccc(C(=O)N[C@@H](CCC(=O)O)C(=O)O)cc3)c2c(=O)[nH]1 [Pemetrexed] (partner 0.2 µM) displayed a relative viability of 0.866.

Still in this test, the particulars now being: first compound 8 µM.
On to `CCCCCCCCCCCC1=C(O)C(=O)C=C(O)C1=O` [Embelin] + CCNC(=O)c1noc(-c2cc(C(C)C)c(O)cc2O)c1-c1ccc(CN2CCOCC2)cc1 [Luminespib] (partner 0.01 µM), for which the relative viability is 0.751.
